Source: the supplement of paper PMC10307832

What was measured:
Test in all cases: relative viability (nuclei count vs DMSO), 5 days (fraction); higher = more cells survive
[1] = test system: RERF-LC-KJ
Outline: (§1)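 One day after seeding in 1536-well plates, lung cancer cell lines were dosed by pin tool. Dosing was either single-drug or a fixed anchor-drug dose plus five library-drug doses (not always all listed) in √10 steps. After 5 days, nuclei were stained in one fix-and-stain step and counted on 4× images, and relative viability is the nuclei count of treated wells over that of vehicle wells, given as the median of duplicate plates.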

[2] = test system: PC-3 [JPC-3]
Outline: as §1

[3] = test system: LK-2
Outline: as §1

[4] = test system: COR-L23
Outline: as §1

[5] = test system: NCI-H23
Outline: as §1

[6] = test system: UMC-11
Outline: as §1

[7] = test system: A-427
Outline: as §1

[8] = test system: HCC-78
Outline: as §1

[9] = test system: NCI-H647
Outline: as §1

[10] = test system: NCI-H520
Outline: as §1

[11] = test system: NCI-H2347
Outline: as §1

[12] = test system: NCI-H1651
Outline: as §1

[13] = test system: HARA
Outline: as §1

[14] = test system: NCI-H838
Outline: as §1

[15] = test system: LXF-289
Outline: as §1

[16] = test system: NCI-H1650
Outline: as §1

[17] = test system: 201T
Outline: as §1

[18] = test system: NCI-H2405
Outline: as §1

[19] = test system: LCLC-97TM1
Outline: as §1

[20] = test system: LOU-NH91
Outline: as §1

[21] = test system: LCLC-103H
Outline: as §1

**Q.** What does the source list for `CCNC(=O)c1noc(-c2cc(C(C)C)c(O)cc2O)c1-c1ccc(CN2CCOCC2)cc1` [Luminespib] + C[C@@H](Oc1cc(-c2cnn(C3CCNCC3)c2)cnc1N)c1c(Cl)ccc(F)c1Cl [Crizotinib] (partner 1 µM)?
**A.** relative viability ([1]; first compound 0.002 µM): 0.817; relative viability ([1]; first compound 0.006325 µM): 0.791; relative viability ([1]; first compound 0.02 µM): 0.877; relative viability ([1]; first compound 0.06325 µM): 0.948; relative viability ([1]; first compound 0.2 µM): 0.223; relative viability ([2]; first compound 0.002 µM): 1.01; relative viability ([2]; first compound 0.006325 µM): 0.875; relative viability ([2]; first compound 0.02 µM): 0.971; relative viability ([2]; first compound 0.06325 µM): 0.996; relative viability ([2]; first compound 0.2 µM): 0.933; relative viability ([3]; first compound 0.002 µM): 0.215; relative viability ([3]; first compound 0.006325 µM): 0.217; relative viability ([3]; first compound 0.02 µM): 0.269; relative viability ([3]; first compound 0.06325 µM): 0.231; relative viability ([3]; first compound 0.2 µM): 0.196; relative viability ([4]; first compound 0.002 µM): 0.806; relative viability ([4]; first compound 0.006325 µM): 0.629; relative viability ([4]; first compound 0.02 µM): 0.81; relative viability ([4]; first compound 0.06325 µM): 0.0713; relative viability ([4]; first compound 0.2 µM): 0.0608; relative viability ([5]; first compound 0.002 µM): 0.56; relative viability ([5]; first compound 0.006325 µM): 0.538; relative viability ([5]; first compound 0.02 µM): 0.445; relative viability ([5]; first compound 0.06325 µM): 0.119; relative viability ([5]; first compound 0.2 µM): 0.123; relative viability ([6]; first compound 0.002 µM): 0.606; relative viability ([6]; first compound 0.006325 µM): 0.584; relative viability ([6]; first compound 0.02 µM): 0.682; relative viability ([6]; first compound 0.06325 µM): 0.156; relative viability ([6]; first compound 0.2 µM): 0.107; relative viability ([7]; first compound 0.002 µM): 1.09; relative viability ([7]; first compound 0.006325 µM): 0.796; relative viability ([7]; first compound 0.02 µM): 0.955; relative viability ([7]; first compound 0.06325 µM): 0.873; relative viability ([7]; first compound 0.2 µM): 0.835; relative viability ([8]; first compound 0.002 µM): 0.302; relative viability ([8]; first compound 0.06325 µM): 0.337; relative viability ([8]; first compound 0.2 µM): 0.232; relative viability ([9]; first compound 0.002 µM): 1.22; relative viability ([9]; first compound 0.006325 µM): 1.07; relative viability ([9]; first compound 0.02 µM): 1.15; relative viability ([9]; first compound 0.06325 µM): 0.0916; relative viability ([9]; first compound 0.2 µM): 0.0805; relative viability ([10]; first compound 0.002 µM): 0.831; relative viability ([10]; first compound 0.006325 µM): 0.976; relative viability ([10]; first compound 0.02 µM): 0.845; relative viability ([10]; first compound 0.06325 µM): 0.0957; relative viability ([10]; first compound 0.2 µM): 0.0995; relative viability ([11]; first compound 0.002 µM): 0.701; relative viability ([11]; first compound 0.02 µM): 0.625; relative viability ([11]; first compound 0.06325 µM): 0.315; relative viability ([11]; first compound 0.2 µM): 0.311; relative viability ([12]; first compound 0.002 µM): 0.85; relative viability ([12]; first compound 0.006325 µM): 0.901; relative viability ([12]; first compound 0.02 µM): 0.787; relative viability ([12]; first compound 0.06325 µM): 0.813; relative viability ([12]; first compound 0.2 µM): 0.63; relative viability ([13]; first compound 0.002 µM): 1.02; relative viability ([13]; first compound 0.006325 µM): 0.957; relative viability ([13]; first compound 0.02 µM): 1.17; relative viability ([13]; first compound 0.06325 µM): 1.06; relative viability ([13]; first compound 0.2 µM): 0.0699; relative viability ([14]; first compound 0.002 µM): 0.947; relative viability ([14]; first compound 0.006325 µM): 0.78; relative viability ([14]; first compound 0.02 µM): 0.755; relative viability ([14]; first compound 0.06325 µM): 0.285; relative viability ([14]; first compound 0.2 µM): 0.101; relative viability ([15]; first compound 0.002 µM): 0.825; relative viability ([15]; first compound 0.006325 µM): 0.79; relative viability ([15]; first compound 0.02 µM): 0.894; relative viability ([15]; first compound 0.06325 µM): 0.459; relative viability ([15]; first compound 0.2 µM): 0.123; relative viability ([16]; first compound 0.002 µM): 0.944; relative viability ([16]; first compound 0.006325 µM): 0.928; relative viability ([16]; first compound 0.02 µM): 0.7; relative viability ([16]; first compound 0.06325 µM): 0.12; relative viability ([16]; first compound 0.2 µM): 0.134; relative viability ([17]; first compound 0.002 µM): 0.995; relative viability ([17]; first compound 0.006325 µM): 0.981; relative viability ([17]; first compound 0.02 µM): 0.968; relative viability ([17]; first compound 0.06325 µM): 1.03; relative viability ([17]; first compound 0.2 µM): 1.03; relative viability ([18]; first compound 0.002 µM): 0.829; relative viability ([18]; first compound 0.006325 µM): 0.644; relative viability ([18]; first compound 0.02 µM): 0.705; relative viability ([18]; first compound 0.06325 µM): 0.615; relative viability ([18]; first compound 0.2 µM): 0.257; relative viability ([19]; first compound 0.002 µM): 0.417; relative viability ([19]; first compound 0.006325 µM): 0.461; relative viability ([19]; first compound 0.02 µM): 0.157; relative viability ([19]; first compound 0.06325 µM): 0.221; relative viability ([19]; first compound 0.2 µM): 0.22; relative viability ([20]; first compound 0.002 µM): 0.765; relative viability ([20]; first compound 0.006325 µM): 0.726; relative viability ([20]; first compound 0.02 µM): 0.55; relative viability ([20]; first compound 0.06325 µM): 0.328; relative viability ([20]; first compound 0.2 µM): 0.351; relative viability ([21]; first compound 0.002 µM): 1.02; relative viability ([21]; first compound 0.006325 µM): 1.04; relative viability ([21]; first compound 0.02 µM): 0.908; relative viability ([21]; first compound 0.06325 µM): 1.02; relative viability ([21]; first compound 0.2 µM): 1.15
